Assays:
[1] = system: T1, LDH (D-lactate specific LDH, D-LDH) from foot muscle, aerobic control; test: NADH absorbance at […] nm, microplate; assay type: biochemical, Littorina littorea; details: 25°C, control enzyme
T1 construct: native enzyme from foot muscle of aerobic control snails, partially purified on blue agarose; more acetylated than the 24 h anoxic form

[2] = system: T1, LDH (D-lactate specific LDH, D-LDH) from foot muscle, aerobic control; test: NADH absorbance at […] nm, microplate; assay type: biochemical, Littorina littorea; details: assay direction not stated for this effector, presumably pyruvate-reducing (pH 6.5, 2.5 mM pyruvate, 0.25 mM NADH); 25°C; control enzyme

`C[C@@H](O)C(=O)O` [D-lactate] showed a Km ([1]; D-lactate-oxidizing direction, 25 mM KH2PO4 pH 9.5, 3 mM NAD+) of 25 ± 2 mM.

With `Nc1ncnc2c1ncn2[C@@H]1O[C@H](COP(=O)(O)OP(=O)(O)O)[C@@H](O)[C@H]1O` [ADP] the IC50 [2] was 23 ± 2 mM.

For `CC(=O)C(=O)O` [pyruvate], the Km ([1]; 25 mM KH2PO4 pH 6.5, 0.25 mM NADH) was 0.29 ± 0.01 mM.

`Nc1ncnc2c1ncn2[C@@H]1O[C@H](COP(=O)(O)OP(=O)(O)OP(=O)(O)O)[C@@H](O)[C@H]1O` [ATP] gave an IC50 [2] of 13 ± 1 mM.
